Earlier results, collected in patent US20230165871A1, “COMBINATION THERAPIES FOR INHIBITION OF POLO-LIKE KINASE 4” (UNIVERSITY HEALTH NETWORK, priority 2020, published 2023).

Assays:
cancer cell lines = conditions: via induction of apoptosis and cell cycle arrest with induction of aneuploidy
[1] = test system: cell line and patient-derived xenografts of breast and ovarian cancer; conditions: tolerable doses
[2] = clinical
[3] = in vivo

## COc1ccc2c(c1)[C@]1(C[C@H]1c1ccc3c(/C=C/c4ccc(CN5C[C@@H](C)O[C@@H](C)C5)cc4)n[nH]c3c1)C(=O)N2 [Compound (I)]
Cancer cell lines
  anti-proliferative effects in cancer cell lines: potent anti-proliferative effects
[1]
  anti-tumour effects in xenograft models: potent anti-tumour effects at tolerable doses
[2]
  major toxic effects which limit dose: neutropenia, thrombocytopenia, fever, diarrhea and increased liver function tests
[3]
  oral bioavailability: orally bioavailable
